{"source": "patent US6653354B2", "about": "“NMDA antagonist comprising xenon” (priority 1999, dated 2003)", "key": {"[1]": {"test_system": "cortical neuronal-glial co-culture injured with NMDA", "assay": "NMDA-induced neuronal injury in neuronal-glial co-culture (LDH release)", "assay_type": "cell-based, mouse", "method": "Dissociated murine cortical cell cultures were prepared using whole cerebral neocortices from fetal mice (14-17 days of gestation). Cortical glial cell cultures were prepared from early postnatal mice. After halting non-neuronal cell division with cytosine arabinoside the surviving cortical neuronal cells were plated onto the glial cell background and co-cultured.\n15 days after originally harvesting the foetal cortical cells, the co-culture plates were exposed at room temperature to N-methyl,D-aspartate (NMDA), 10-1,000 μM, in a control salt solution (CCS) for 10 minutes. After carefully washing out with CCS, the cells were incubated for 6-24 hours in a Eagle's minimal essential medium free of glutamate or lactate dehydrogenase (LDH) but supplemented with glucose 25 mM, and NaHCO3 38 mM at 37° C. in humidified CO2 (5%) atmosphere. The degree of injury was determined by measuring the LDH released into the medium. A dose-response curve of NMDA-induced injury is shown in FIG. 10, as described hereinbefore.\n75% of one atmosphere of xenon was delivered to the cells during and after exposure to a 750 μM NMDA, a concentration which produces a near maximal injury. The degree of injury was determined by measuring the LDH released into the medium (after correcting for “baseline” LDH release). Xenon reduced the injury produced by NMDA by more than 30%; when xenon was continued after NMDA exposure, the injury was further reduced by more than 55%. The results of the protective effect of xenon are illustrated in FIG. 12, as described hereinbefore."}, "rhesus monkeys": {"test_system": "rhesus monkeys", "details": "cited from earlier work"}, "GABAA receptors": {"test_system": "GABAA receptors", "assay": "Currents evoked by exogenously applied GABA in voltage-clamped cultured hippocampal neurons", "assay_type": "cell-based", "details": "100% xenon; cultured rat hippocampal neurons"}}}
{"smiles": "[Xe]", "note": "[xenon]", "values": [{"measurement": "protection against excitotoxicity (% of LDH released in the absence of xenon)", "setting": "[1]; 250 μM NMDA for 10 minutes, low (sub-anaesthetic) concentrations of xenon, LDH after 6 hours", "result": "Highly significant protection"}, {"measurement": "excitotoxic injury (LDH release, normalised)", "setting": "[1]; 250 μM NMDA, 75% xenon", "result": "greatly reduced"}, {"measurement": "percentage of neuroprotection", "setting": "[1]; 75% (atm.) xenon, after 6 hours, 10 minute exposure to 250 μM NMDA", "result": 60, "unit": "%"}, {"measurement": "reduction of the injury produced by NMDA (LDH release)", "setting": "[1]; 75% of one atmosphere xenon during exposure to 750 μM NMDA", "result": "more than 30%"}, {"measurement": "reduction of the injury produced by NMDA (LDH release)", "setting": "[1]; 75% xenon continued after 750 μM NMDA exposure", "result": "more than 55%"}, {"measurement": "gaseous concentration which prevents a response to a painful stimulus (MAC)", "setting": "rhesus monkeys", "result": 98, "unit": "% atm"}, {"measurement": "effect on currents activated by 3 μM GABA", "setting": "GABAA receptors", "result": "not significantly affected"}]}
